Experimental data taken from ChEMBL document CHEMBL3507680, “University of Dundee, Gates Library screen for HepG2 cell viability”.

Assay: Human HepG2 cell viability assay in 384 well format
Type: toxicity, cell-based
Design: dose 125 nL, time 70.5 hour; concentration not given beside the values
Conditions: HepG2 cells, read-out: Inhibition

Row | Structure (SMILES) | cytotoxicity at 70.5 h [%]
1 | O=C(CCc1nc2cccnc2[nH]1)Nc1ccc2c(c1)OCC(=O)N2 | -10.5
2 | Cn1c(CN2CCOCC2)cc(=O)c(O)c1CN1CCOCC1 | -12.3
3 | Cc1cc(C(=O)Nc2n[nH]c(C3CC3)n2)c2c(C)noc2n1 | 29
4 | O=C(Nc1nnn[nH]1)c1cc(-c2ccc(Br)s2)n[nH]1 | -3.48
5 | CN(C)CCCNC(=O)C1CC(=O)N(c2n[nH]c3cccc(F)c23)C1 (stereo not drawn) | -26.2
6 | COc1ccc2c(c1)c(C(=O)Nc1n[nH]c(C(C)C)n1)cn2C(C)C | 40.7
7 | Cn1c(CN2CCOCC2)cc(=O)c(O)c1CN1CCCC1 | -6.51
8 | O=C(CCc1nnc2ccccn2c1=O)NCc1cccnc1 | -14.8
9 | O=C(C1CC(=O)N(c2n[nH]c3cc(Br)ccc23)C1)N1CCOCC1 (stereo not drawn) | -11.9
10 | COCCn1ccc2ccc(C(=O)N3CCN(C(C)=O)CC3)cc21 | -13.7
11 | CSCCC(Nc1nc(C)cc(C)n1)C(=O)NC(C)(C)CO (stereo not drawn) | 25.7
12 | O=C1CSC(c2ccsc2)c2c(n(C3CCCC3)[nH]c2=O)N1 (stereo not drawn) | -12.7
13 | Cc1cc(C)nc(NCCCC(=O)NCCn2ccc3ccccc32)n1 | -30.2
14 | CSCCC(Nc1nc(C)cc(C)n1)C(=O)NC1CCCC1 (stereo not drawn) | -12.6
15 | COCCn1cc(CC(=O)Nc2cc(C)n(C)n2)c2ccccc21 | -5.22
16 | O=C(CCNc1ncccn1)Nc1ccc(Cn2cncn2)cc1 | -7.19
17 | CSCCC(Nc1nc(C)cc(C)n1)C(=O)NCC1CCOCC1 (stereo not drawn) | -8.81
18 | COCCn1cc(CCC(=O)Nc2c(C)nn(C)c2C)c2ccccc21 | 49.6
19 | O=C(Nc1ncc[nH]1)c1cc(-c2cccnc2)n[nH]1 | -2.08
20 | CC(C)c1sc(Cl)nc1C(=O)N1CCN(c2ccccc2)CC1 | 28.2
21 | CC(=O)Nc1cccc2c1ccn2CC(=O)NC(C)C | -2.5
22 | Cc1nn(C)c2nc(C(C)C)cc(C(=O)Nc3n[nH]c(C4CC4)n3)c12 | 27

Row | Structure (SMILES) | cytotoxicity at 70.5 h [%]
23 | CC1=Nc2c(c(=O)[nH]n2C2CCOCC2)C(c2cccc(O)c2)S1 (stereo not drawn) | -7.06
24 | O=C(NCC1CCCO1)c1cc(-c2ccc3c(c2)CCO3)n[nH]1 (stereo not drawn) | 16.6
25 | CCN1CCCC1CNC(=O)Cc1c(-c2ccc(Cl)cc2)n[nH]c1C (stereo not drawn) | 21.2
26 | O=C(NC1CCCc2c1[nH]c1ccc(F)cc21)c1n[nH]c2c1CCCC2 (stereo not drawn) | 27
27 | CC(C)n1cnc2ccc(NC(=O)CCCn3cccn3)cc2c1=O | 21.7
28 | COCCn1cnc2ccc(NC(=O)c3ccc(OC)cc3)cc2c1=O | -9.11
29 | COc1ccc(C(=O)Nc2ccc3ncn(C(C)C)c(=O)c3c2)cc1 | -3.51
30 | O=C1CSC(c2ccncc2)c2c(n(C3CCOCC3)[nH]c2=O)N1 (stereo not drawn) | 36.4
31 | O=C1CSC(c2ccccc2)c2c(n(C3CCOCC3)[nH]c2=O)N1 (stereo not drawn) | -23
32 | COc1cccc(C(=O)Nc2n[nH]c(C3CCCO3)n2)c1 (stereo not drawn) | 22.1
33 | COc1ccc(-c2n[nH]c(C)c2CC(=O)N2CCOCC2)cc1 | -6.85
34 | COc1ccc(CC(=O)Nc2ccc3ncn(C)c(=O)c3c2)cc1 | -2.82
35 | COCCn1ccc2c(C(=O)NC3CN4CCC3CC4)cccc21 (stereo not drawn) | -20.8
36 | COCCNC(=O)c1cc(-c2ccc3c(c2)CCO3)n[nH]1 | 15.5
37 | CC(C)n1ccc2ccc(C(=O)NC3CN4CCC3CC4)cc21 (stereo not drawn) | -17.1
38 | COc1ccc(-c2n[nH]c(C)c2CC(=O)NCCN2CCOCC2)cc1 | -2.78
39 | O=C(Cn1cnc2sccc2c1=O)NCCCc1nnc2ccccn12 | -17.5
40 | COCCn1ccc2c(NC(=O)c3n[nH]c4c3CCC4)cccc21 | 1.93
41 | COc1ccc(-c2n[nH]c(C)c2CC(=O)NCC2CCCO2)cc1 (stereo not drawn) | 20.6
42 | COc1ccc(C(=O)CNC(=O)c2nc(Cl)sc2C(C)C)cc1 | 25
43 | O=C1CSC(c2cccnc2)c2c(n(C3CCOCC3)[nH]c2=O)N1 (stereo not drawn) | -24.2
44 | CC(C)c1sc(Cl)nc1C(=O)NCc1ccncc1 | 19.6

Row | Structure (SMILES) | cytotoxicity at 70.5 h [%]
45 | O=C(CN1C(=O)CCC1=O)N1CCOCC1 | 48.6
46 | CN(Cc1cccnc1)CC1CC12CCN(Cc1nccs1)CC2 (stereo not drawn) | 2.96
47 | O=S(=O)(c1cccc(F)c1)N1C[C@@H]2COC[C@]2(COCC2CC2)C1 | 4.21
48 | C1CCN(Cc2nnn3c2CN(CC2CC2)CCC3)C1 | 0.89
49 | C1CN(CC2CCOCC2)Cc2c(CN3CCOCC3)nnn2C1 | 6.54
50 | c1nc2n(c1CN1CCOCC1)CCN(C1CCOC1)CC2 (stereo not drawn) | 7.7
51 | O=C(C1CCOC1)N1CCc2ncnc(NC3CCC3)c2CC1 (stereo not drawn) | -2.47
52 | CCN(CC)Cc1cnc2n1CCN(C1CCOC1)CC2 (stereo not drawn) | -1.04
53 | CC(C)NC(=O)[C@H]1CCS(=O)(=O)[C@@H]2CN(c3ncccn3)C[C@H]12 | -6.18
54 | CC(=O)N1CCCc2sc(C(=O)NC3CC3)nc21 | -6.9
55 | O=C(NC1CC1)c1nc2c(s1)CCCN2c1ccccc1 | -6.79
56 | COc1cc(N2C[C@H]3CN(C(=O)c4cnccn4)C[C@H]3C2)ncn1 | -2.87
57 | O=C(c1ccoc1)N1CC[C@H]2[C@H]1CCN2S(=O)(=O)C1CC1 | 13.5
58 | O=C([C@H]1COC[C@H]2CN(c3ccncn3)C[C@H]21)N1CCCC1 | 13.9
59 | O=C(c1ccncc1)N1CCc2onc(CN3CCCC3)c2C1 | 18.4
60 | CCOCC1c2c(ncn2C(C)C)CCN1C(=O)CC (stereo not drawn) | 7.88
61 | CC(=O)N1CCC2(CC1)CNc1ccc(F)cc12 | -5.28
62 | CCC(=O)N1CCC2(COCc3c(C)nc(NCc4ccco4)nc32)C1 (stereo not drawn) | -6.57
63 | CCOCC1CC2(CCN(C(=O)C3CC=CC3)CC2)CO1 (stereo not drawn) | -8.99
64 | CC(C)Nc1nc2c(c(N(C)C)n1)CCN(C(=O)c1cc[nH]n1)CC2 | -10.4
65 | Cc1cccc(S(=O)(=O)N2C[C@@H]3OCCN(C(C)C)[C@@H]3C2)c1 | -6.06
66 | O=C(c1cccnc1)N1CCc2onc(CN3CCCC3)c2C1 | -4.02

Row | Structure (SMILES) | cytotoxicity at 70.5 h [%]
67 | O=C(c1cnccn1)N1CCc2onc(CN3CCCC3)c2C1 | 1.69
68 | CNC(=O)N1CCC2(COCc3c(C)nc(NCc4ccco4)nc32)C1 (stereo not drawn) | -6.98
69 | O=C(c1ccnnc1)N1CCc2onc(CN3CCCC3)c2C1 | -3.95
70 | CCN(C(=O)c1nc2c(s1)CCCN2Cc1ccccc1)C(C)C | -7.5
71 | Cc1nc(N2CCOCC2)nc2c1CCN(c1nccs1)CC2 | -5.03
72 | Cc1ccc(N2CC[C@@H]3O[C@@H](c4ccncn4)C[C@H]3C2)nn1 | -3.76
73 | O=C1[C@H]2CN(c3ncc(F)cn3)C[C@H]2CN1CC1CC1 | 5.29
74 | O=S(=O)(C1CC1)N1CCOC2(CCCN(c3ccccc3)C2)C1 (stereo not drawn) | 7.04
75 | Cc1cnc(N2C[C@@H]3CCN(CC4CC4)C(=O)[C@H]3C2)nc1 | -4.98
76 | O=C(c1ccc(F)cc1)N1C[C@@H]2CN(c3ncccn3)C[C@@H]2C1 | -6.82
77 | O=S(=O)(C1CC1)N1CCC2(CCCN(c3ncc(F)cn3)C2)C1 (stereo not drawn) | -11.2
78 | Cn1cnc2c1C(C(=O)N1CCCC1)N(S(C)(=O)=O)CC2 (stereo not drawn) | -7.56
79 | Cc1ncc(CN2CCCC2)c2cc(C(=O)c3ccc(Br)cc3)oc12 | -14.3
80 | CNC(=O)N1CCC2(CC1)CNc1ccc(F)cc12 | -5.44
81 | CCOC1CC2(CCN(Cc3nccn3C)CC2)C1 | -0.734
82 | CN(C)Cc1nn(C)c2c1CCN(C(=O)c1cnccn1)C2 | 17.9
83 | COc1ncnc2c1CCN(C(=O)NCc1cccnc1)CC2 | 1.49
84 | CCCS(=O)(=O)N1C[C@@H]2CN(Cc3ccoc3)CCO[C@@H]2C1 | 6.66
85 | Cc1cc(CN2C[C@@H]3CN(C(=O)c4ccsc4)CCO[C@@H]3C2)no1 | 5.07
86 | O=C(NCc1cccnc1)N1CCc2ncnc(C3CC3)c2CC1 | 5.6
87 | COc1cc(N2CCC3(CCN(C(=O)c4cccnc4)CC3)C2)ncn1 | -6.37
88 | O=C(NCC1CC1)[C@@H]1C[C@@H]2OCCN[C@@H]2C1 | -2.73

Row | Structure (SMILES) | cytotoxicity at 70.5 h [%]
89 | O=C(c1ccsc1)N1CCO[C@@H]2CN(Cc3cccs3)C[C@@H]2C1 | -6.05
90 | O=C(c1ccncc1)N1CC[C@H]2[C@H]1CCN2S(=O)(=O)C1CC1 | -5.53
91 | O=C([C@@H]1COC[C@H]2CN(c3ccncn3)C[C@H]21)N1CCCC1 | 10.6
92 | CCC1=N[C@@]2(CC[C@@H]3CN(CC(C)C)C[C@@H]32)C(=O)N1 | -2.78
93 | c1cnc(N2CCOCC3(CCCN(Cc4cc[nH]n4)C3)C2)nc1 (stereo not drawn) | -3
94 | O=C(COC1CCCC1)N1C[C@@H]2CN(Cc3ccoc3)CCO[C@@H]2C1 | -6.78
95 | Cc1nc2c(c(NC(C)C)n1)CCN(C(=O)c1ccno1)CC2 | -6.32
96 | CN1CCO[C@@H]2CN(S(=O)(=O)c3ccccc3F)CC[C@@H]2C1 | -1.61
97 | O=C(c1ccccn1)N1CCOC2(COCCN(Cc3cc[nH]n3)C2)C1 (stereo not drawn) | -3.84
98 | CC(C)n1cnc2c1C(C(=O)N1CCOCC1)N(CC1CC1)CC2 (stereo not drawn) | -15.8
99 | Cc1cnc(N2C[C@@H]3CCN(CC(=O)N(C)C)C(=O)[C@H]3C2)nc1 | 4.34
100 | CCN1C[C@@H]2CN(C(=O)NCc3ccccc3)CCC[C@]2(C(=O)O)C1 | -15.2
101 | CCc1ccc(CN2CCc3c(nnn3C)C2COC)cc1 (stereo not drawn) | -5.54
102 | c1cncc(CN2CCc3ncnc(C4CC4)c3CC2)c1 | 2.26
103 | Cn1nnc2c1CCN(Cc1ccncc1)C2COCc1ccccc1 (stereo not drawn) | -6.13
104 | Cn1nc(CN2CCCC2)c2c1CN(C(=O)c1cccnc1)CC2 | -2.33
105 | c1ccc(CN2CCCn3nnc(COc4ccccn4)c3C2)nc1 | -11.2
106 | Cc1ccc(N2C[C@@H]3CN(Cc4csc(C)n4)CCO[C@@H]3C2)nn1 | -2.48
107 | CN(C)c1nc(N2CCCC2)nc2c1CCN(C(=O)c1ccco1)CC2 | -7.2
108 | CC(C)N1[C@H](CN(C)C)C[C@@H]2CN(c3ncc(F)cn3)CC[C@@H]21 | 6.71
